US11512053B2, “Arginine methyltransferase inhibitors and uses thereof” (priority 2013, dated 2022)
Counter-ions that a name gives are not always drawn. Like-named read-outs stand apart in the source and are kept apart here.

Target: full-length human PRMT8 isoform 1 (Homo sapiens, UniProt Q9NR22)
Experiment: PRMT8 Biochemical Assay (3H-SAM Flashplate, peptide substrate)
Settings: read-out: Biochemical IC50 PRMT8
Summary of the method: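 Full-length human PRMT8 (1.5 nM, E. coli-expressed, GST removed) preincubated 30 min at room temperature with compound, then reacted with 50 nM 3H-SAM plus 550 nM cold SAM and 150 nM biotinylated H4 31-45 peptide in 20 mM Bicine pH 7.6, 1 mM TCEP, 0.005% BSG, 0.002% Tween 20, 2% DMSO. Quenched with 400 uM cold SAM; labelled peptide captured on streptavidin Flashplate, % inhibition versus 1 mM SAH and DMSO controls fitted to 4- or 3-parameter curve.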

[1] = single experiment or average of multiple experiments

Chain of full-length human PRMT8 isoform 1 (Q9NR22 whole entry, canonical isoform): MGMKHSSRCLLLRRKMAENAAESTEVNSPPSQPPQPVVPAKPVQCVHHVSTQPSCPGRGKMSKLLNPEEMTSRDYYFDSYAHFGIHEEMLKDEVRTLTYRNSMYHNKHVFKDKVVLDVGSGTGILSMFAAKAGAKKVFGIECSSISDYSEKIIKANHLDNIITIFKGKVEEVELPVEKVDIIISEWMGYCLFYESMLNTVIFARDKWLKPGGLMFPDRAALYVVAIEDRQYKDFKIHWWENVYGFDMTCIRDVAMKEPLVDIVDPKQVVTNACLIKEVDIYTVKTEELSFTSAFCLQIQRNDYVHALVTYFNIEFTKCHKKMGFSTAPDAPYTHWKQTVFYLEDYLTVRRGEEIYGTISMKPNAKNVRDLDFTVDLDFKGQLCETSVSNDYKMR

SMILES	IC50 [1] [nM]	IC50 [nM]
CNCCN(C)Cc1c[nH]nc1C1CCN(C(=O)C(C)C)CC1 [Compound 34]	440	
CNCCN(C)Cc1c[nH]nc1C1CCN(C(=O)CC(C)C)CC1 [Compound 40, 3-methyl-1-(4-(4-((methyl(2-(methylamino)ethyl)amino)methyl)-1H-pyrazol-3-yl)piperidin-1-yl)butan-1-one]	7010	
CNCCN(C)Cc1c[nH]nc1C#Cc1ccc(F)cc1 [Compound 4]	590	
COC/C=C/c1n[nH]cc1CN(C)CCN [Compound 19]	2300	
CNCCN(C)Cc1c[nH]nc1/C=C/c1ccc(C(F)(F)F)cc1 [Compound 6]	240	
CN(CCN)Cc1c[nH]nc1C1=CCOCC1 [Compound 10]	1920	
CN(CCN)Cc1c[nH]nc1CCc1ccc(F)cc1 [Compound 23, N^1-((3-(4-fluorophenethyl)-1H-pyrazol-4-yl)methyl)-N^1-methylethane-1,2-diamine]	280	
CC(C)c1n[nH]cc1CN(C)CCN [Compound 21]	9560	
CNCCN(C)Cc1c[nH]nc1/C=C/c1ccc(-c2ccccc2)cc1 [Compound 5]	420	
CN(CCN)Cc1c[nH]nc1/C=C/Cc1ccccc1 [Compound 24]	300	
COc1cccc(/C=C/c2n[nH]cc2CN(C)CCN)c1 [Compound 17]	410	
CN(CCN)Cc1c[nH]nc1C1CCCCC1 [Compound 22]	300	
COc1cc(/C=C/c2n[nH]cc2CN(C)CCN)cc(OC)c1 [Compound 11]	250	
CN(CCN)Cc1c[nH]nc1C1CC1 [Compound 12]	> 10000	> 10000
Cc1n[nH]cc1CN(C)CCN [Compound 30]	> 10000	
CC1CCC(c2c[nH]nc2CN(C)CCN)CC1 (centres unmarked) [Compound 35]	140	
CN(CCN)Cc1c[nH]nc1/C=C/c1cc(C(F)(F)F)cc(C(F)(F)F)c1 [Compound 14]	660	
CNCCN(C)Cc1c[nH]nc1C1CCN(C(=O)Cc2ccccc2)CC1 [Compound 32]	770	
CN(CCN)Cc1n[nH]cc1C1CCC(C)(C)CC1 [Compound 36]	280	
CC1CCC(c2n[nH]cc2CN(C)CCN)CC1 (centres unmarked) [Compound 37, N^1-methyl-N^1-((3-(4-methylcyclohexyl)-1H-pyrazol-4-yl)methyl)ethane-1,2-diamine]	130	
CCCc1n[nH]cc1CN(C)CCN [Compound 29]	3810	
CNCCN(C)Cc1c[nH]nc1C#Cc1ccc(C(C)(C)C)cc1 [Compound 2]	170	
CNCCN(C)Cc1ccnn1C1CCC2(CCCC2)CC1 [Compound 275, Methyl[2-(methylamino)ethyl][(1-[spiro[4.5]decan-8-yl]-1H-pyrazol-5-yl)methyl]amine trifluoroacetate]	10.4	< 100

More lines, now with the values ahead:

IC50 [1] [nM]	IC50 [nM]	SMILES
12.8		CNCCN(C)Cc1c[nH]nc1C1CCC(COC)CC1 (centres unmarked) [Compound 53]
360		CNCCN(C)Cc1c[nH]nc1C1CCN(CC(C)C)CC1 [Compound 39, N^1-((3-(1-isobutylpiperidin-4-yl)-1H-pyrazol-4-yl)methyl)-N^1,N^2-dimethylethane-1,2-diamine]
350		CNCCN(C)Cc1c[nH]nc1C1CCN(C)CC1 [Compound 41]
20	< 100	CNCCN(C)Cc1c[nH]nc1C1CCC2(CCCCC2)OC1 (centres unmarked) [Compound 62]
62.4		CN(CCN)Cc1n[nH]cc1C1CCC(N2CCOCC2)CC1 (centres unmarked) [Compound 44, N^1-methyl-N^1-((4-(4-morpholinocyclohexyl)-1H-pyrazol-3-yl)methyl)ethane-1,2-diamine]
11.9	< 100	CNCCN(C)Cc1c[nH]nc1C1CCC(Oc2ccccc2)CC1 (centres unmarked) [Compound 67]
5.3		CN(CCN)Cc1c[nH]nc1C1CCC2(CCCC2)CC1 [Compound 45]
24.7		CNCCN(C)Cc1c[nH]nc1C1CCC2(CCOC2)CC1 (centres unmarked) [Compound 54]
10.4		CNCCN(C)Cc1c[nH]nc1C1CCC(C)(C)CC1 [Compound 52]
72.1		CNCCN(C)Cc1c[nH]nc1C1CCC(OCCOC)CC1 (centres unmarked) [Compound 58]
12.5		CNCCN(C)Cc1cn(C)nc1C1CCC2(CCCC2)CC1 [Compound 47]
25.8	< 100	CNCCN(C)Cc1c[nH]nc1C1CCC(C)(C)[C@H](OCCCOC)C1 (some centres unmarked) [Compound 272]
6.2		CNCCN(C)Cc1c[nH]nc1C1CCC2(CCCCC2)CC1 [Compound 46]
42.1	< 100	CNCCN(C)Cc1c[nH]nc1C1CCC(C)(C)C(C(=O)NCc2ccccc2)C1 (centres unmarked) [Compound 92]
18.9	< 100	CNCCN(C)Cc1c[nH]nc1C1CCC(C)(C)C(COCC(C)C)C1 (centres unmarked) [Compound 95]
260		CN(CCN)Cc1c[nH]nc1C1CCC(C)(C)CC1 [Compound 38, N^1-((3-(4,4-dimethylcyclohexyl)-1H-pyrazol-4-yl)methyl)-N^1-methylethane-1,2-diamine]
88.1	< 100	CNCCN(C)Cc1c[nH]nc1C1CCC(C)(C)C(C(=O)NCCCOC)C1 (centres unmarked) [Compound 93]
22.6	< 100	CNCCN(C)Cc1c[nH]nc1C1CCC(C)(C)[C@H](OCC2CCOCC2)C1 (stereo partly drawn) [Compound 273, ({3-[(3R)-4,4-dimethyl-3-(oxan-4-ylmethoxy)cyclohexyl]-1H-pyrazol-4-yl}methyl)(methyl)[2-(methylamino)ethyl]amine]
100	< 100	CNCCN(C)Cc1c[nH]nc1[C@@H]1CCC(C)(C)[C@@H](C(=O)NCCCOC)C1 [Compound 271, (1S,5R)—N-(3-methoxypropyl)-2,2-dimethyl-5-[4-({methyl[2-(methylamino)ethyl]amino}methyl)-1H-pyrazol-3-yl]cyclohexane-1-carboxamide]
11.2		CNCCN(C)Cc1c[nH]nc1C1CCC(C(C)C)CC1 (centres unmarked) [Compound 50]
210	101 to 1000	CNCCN(C)Cc1c[nH]nc1[C@H]1CCC(C)(C)[C@@H](C(=O)NCCOC)C1 [Compound 268]
13.6	< 100	CNCCN(C)Cc1c[nH]nc1C1CCC2(CCC(C)(C)CC2)OC1 (centres unmarked) [Compound 65]
1010	1010 to 3000	CCOCC1CC(c2n[nH]cc2CN(C)CCNC)CC(COCC)C1(C)C (centres unmarked) [Compound 87]
